Experimental data from the supplement of paper PMC4862054.

How the values were obtained:
Experiment in all cases: normalised response (% of control), CellTiter-Glo; higher = more viable cells (100 = DMSO, 0 = benzethonium chloride kill control)
Conditions in all cases: incubation time: 72 h
Hs578T = tested on: Hs578T
How it was run: (§1)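 Each entry is the normalised signal at a single concentration within a series. The series comprised 5 concentrations in 10-fold steps over a compound-specific 10,000-fold range, placed in 384-well plates into which breast cancer cell lines were seeded as 20 µl suspension and incubated 72 h. CellTox Green (485/520 nm) fluorescence and then CellTiter-Glo luminescence were read, with signals normalised per plate to 0.1 % DMSO (100) and a positive kill control (0).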

CAL-85-1 = tested on: CAL-85-1
How it was run: as §1

HCC1599 = tested on: HCC1599
How it was run: as §1

CAL-120 = tested on: CAL-120
How it was run: as §1

HCC1143 = tested on: HCC1143
How it was run: as §1

MDA-MB-453 = tested on: MDA-MB-453
How it was run: as §1

SK-BR-3 [1] = tested on: SK-BR-3
How it was run: as §1

HDQ-P1 = tested on: HDQ-P1
How it was run: as §1

DU-4475 [2] = tested on: DU-4475
How it was run: as §1

MDA-MB-436 = tested on: MDA-MB-436
How it was run: as §1

CAL-148 [3] = tested on: CAL-148
How it was run: as §1

MFM-223 = tested on: MFM-223
How it was run: as §1

MCF-10A = tested on: MCF-10A
How it was run: as §1

MDA-MB-468 = tested on: MDA-MB-468
How it was run: as §1

SK-BR-3 [4] = tested on: SK-BR-3; remark: listed apart in the source
Protocol: (§2)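 DSRT, 72 h incubation, CellTox Green / CellTiter-Glo readout. Signal is normalised to DMSO and benzethonium chloride controls. Value is the normalised response at the highest dose.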

HCC1937 = tested on: HCC1937
Protocol: as §2

DU-4475 [5] = tested on: DU-4475; remark: listed apart in the source
Protocol: as §2

CAL-148 [6] = tested on: CAL-148; remark: listed apart in the source
Protocol: as §2

Compound | normalised response (Hs578T) | normalised response (CAL-85-1) | normalised response (HCC1599) | normalised response (CAL-120) | normalised response (HCC1143) | normalised response (MDA-MB-453) | normalised response (SK-BR-3 [1]) | normalised response (HDQ-P1) | normalised response (DU-4475 [2]) | normalised response (MDA-MB-436) | normalised response (CAL-148 [3]) | normalised response (MFM-223) | normalised response (MCF-10A) | normalised response (MDA-MB-468) | normalised response (SK-BR-3 [4]) | normalised response (HCC1937) | normalised response (DU-4475 [5]) | normalised response (CAL-148 [6])
COc1ccc(-c2cc3c(C)nc(N)nc3n([C@H]3CC[C@H](OCCO)CC3)c2=O)cn1 (1000 nM) | 19.3% | 20.7% | 57.1% | 27% | 21.4% | 12.9% | 14.2% | 21.9% | 48% | 37.5% | 26.2% | 26.2% | 19.5% | 20.5% |  |  |  | 
COc1ccc(-c2cc3c(C)nc(N)nc3n([C@H]3CC[C@H](OCCO)CC3)c2=O)cn1 (10000 nM) |  |  |  |  |  |  |  |  |  |  |  |  |  |  | 18.6% | 8.02% | 0.26% | 4.36%
O=C(Nc1c[nH]nc1-c1nc2ccc(CN3CCOCC3)cc2[nH]1)NC1CC1 [AT9283] (1000 nM) |  |  |  |  |  |  |  |  |  |  |  |  |  |  | 70.8% | 73.7% | 72.4% | 86.1%
COc1cc(CCc2cc(NC(=O)c3ccc(N4CC(C)NC(C)C4)cc3)n[nH]2)cc(OC)c1 (centres undefined) [AZD4547] (100 nM) | 88.1% | 96.2% | 107% | 80% | 93.1% | 90.4% | 89.3% | 104% | 96.9% | 99.2% | 104% | 53.1% | 86.2% | 92.2% |  |  |  | 
COc1cc(CCc2cc(NC(=O)c3ccc(N4CC(C)NC(C)C4)cc3)n[nH]2)cc(OC)c1 (centres undefined) [AZD4547] (1000 nM) |  |  |  |  |  |  |  |  |  |  |  |  |  |  | 89.6% | 95.8% | 94% | 93%
CCC/C=C/C=C/C(=O)O[C@H]1/C(=C/C(=O)OC)C[C@H]2C[C@H]([C@@H](C)O)OC(=O)C[C@H](O)C[C@@H]3C[C@H](OC(C)=O)C(C)(C)[C@](O)(C[C@@H]4C/C(=C/C(=O)OC)C[C@H](/C=C/C(C)(C)[C@]1(O)O2)O4)O3 [Bryostatin 1] (10 nM) | 76.9% | 97.1% | 111% | 101% | 104% | 96.8% | 69.7% | 91.6% | 93.7% | 99.6% | 109% | 108% | 103% | 100% |  |  |  | 
CCC/C=C/C=C/C(=O)O[C@H]1/C(=C/C(=O)OC)C[C@H]2C[C@H]([C@@H](C)O)OC(=O)C[C@H](O)C[C@@H]3C[C@H](OC(C)=O)C(C)(C)[C@](O)(C[C@@H]4C/C(=C/C(=O)OC)C[C@H](/C=C/C(C)(C)[C@]1(O)O2)O4)O3 [Bryostatin 1] (100 nM) |  |  |  |  |  |  |  |  |  |  |  |  |  |  | 73.6% | 98.6% | 97.4% | 107%
CO[C@@H](C(=O)N1Cc2[nH]nc(NC(=O)c3ccc(N4CCN(C)CC4)cc3)c2C1)c1ccccc1 [Danusertib] (1000 nM) | 81.6% | 90.8% | 105% | 75.7% | 75.1% | 156% | 91.2% | 82.5% | 83.7% | 80.9% | 72.2% | 43.2% | 46.2% | 33.6% |  |  |  | 
CO[C@@H](C(=O)N1Cc2[nH]nc(NC(=O)c3ccc(N4CCN(C)CC4)cc3)c2C1)c1ccccc1 [Danusertib] (10000 nM) |  |  |  |  |  |  |  |  |  |  |  |  |  |  | 85.6% | 85.3% | 37.3% | 94.9%
Cc1nc(Nc2ncc(C(=O)Nc3c(C)cccc3Cl)s2)cc(N2CCN(CCO)CC2)n1 [Dasatinib] (100 nM) | 61.5% | 61.8% | 118% | 57.5% | 67.9% | 100% | 104% | 35.3% | 100% | 83.4% | 102% | 88.5% | 32.5% | 75.4% |  |  |  | 
Cc1nc(Nc2ncc(C(=O)Nc3c(C)cccc3Cl)s2)cc(N2CCN(CCO)CC2)n1 [Dasatinib] (1000 nM) |  |  |  |  |  |  |  |  |  |  |  |  |  |  | 97.1% | 55.2% | 95.5% | 103%
Cc1c(CN2CCN(C(=O)[C@H](C)O)CC2)sc2c(N3CCOCC3)nc(-c3cnc(N)nc3)nc12 [GDC-0980] (1000 nM) | 41.9% | 37.5% | 85.5% | 46.8% | 45.7% | 20.4% | 21.6% | 35.2% | 75.9% | 59.3% | 35.9% | 35.8% | 39.2% | 54.4% |  |  |  | 
Cc1c(CN2CCN(C(=O)[C@H](C)O)CC2)sc2c(N3CCOCC3)nc(-c3cnc(N)nc3)nc12 [GDC-0980] (10000 nM) |  |  |  |  |  |  |  |  |  |  |  |  |  |  | 19.2% | 29.5% | 15.7% | 10%
Nc1cccc2c1CN(C1CCC(=O)NC1=O)C2=O (centres undefined) [Lenalidomide] (1000 nM) | 104% | 108% | 116% | 93.8% | 101% | 87.1% | 101% | 101% | 102% | 99.9% | 98.2% | 97.6% | 103% | 111% |  |  |  | 
Nc1cccc2c1CN(C1CCC(=O)NC1=O)C2=O (centres undefined) [Lenalidomide] (10000 nM) |  |  |  |  |  |  |  |  |  |  |  |  |  |  | 98.5% | 102% | 99.3% | 104%
C[C@]12O[C@H](C[C@]1(O)CO)n1c3ccccc3c3c4c(c5c6ccccc6n2c5c31)CNC4=O [Lestaurtinib] (100 nM) | 80.2% | 94.9% | 67.2% | 62.8% | 79.4% | 64.4% | 62.4% | 95.8% | 74.1% | 86% | 83.9% | 80.9% | 62.3% | 49.7% |  |  |  | 
